As a reminder, the Km is the concentration of substrate that gives half-maximal velocity.

Three molecules from article PMC4565880, “Purification and characterization of a novel β-carotene-9′,10′-oxygenase from Saccharomyces cerevisiae ULI3” (Biotechnology Letters, 2015) can be followed below.

In this assay the test system is T1, ScBCO2 (β-carotene-9′,10′-oxygenase).
T1 construct: native enzyme purified from culture supernatant (ammonium sulfate, Q Sepharose, Superdex-200); ~50 kDa by SDS-PAGE; peptide mass fingerprint matched no database entry
As to the kind of experiment: HPLC cleavage assay; Hanes-Woolf plot. Conditions: standard assay: 100 mM Tricine/KOH pH 8.0, 37 °C, 12.5 μM Fe2SO4, Tween 40; temperature of kinetic runs not stated; substrate 10-800 μM. The assay is classed as biochemical, Saccharomyces cerevisiae. The source says: HPLC cleavage assay; Hanes-Woolf plot on ScBCO2 (β-carotene-9′,10′-oxygenase)
For the molecule `CC1=C[C@H](O)CC(C)(C)[C@H]1/C=C/C(C)=C/C=C/C(C)=C/C=C/C=C(C)/C=C/C=C(C)/C=C/C1=C(C)C[C@@H](O)CC1(C)C` [Lutein], the Km amounted to 105 ± 0.3 µM. In the case of `CC1=CCCC(C)(C)[C@H]1/C=C/C(C)=C/C=C/C(C)=C/C=C/C=C(C)/C=C/C=C(C)/C=C/C1=C(C)CCCC1(C)C` [α-carotene] it was 48 ± 0.3 µM; in that of `CC1=C(/C=C/C(C)=C/C=C/C(C)=C/C=C/C=C(C)/C=C/C=C(C)/C=C/C2=C(C)CCCC2(C)C)C(C)(C)CCC1` [β-carotene], 37 ± 0.2 µM.
